Assay results reported in BindingDB's records for patent US10730849 (Merck Sharp & Dohme Corp., 2020).

Target: T1, Stimulator of interferon genes protein [R71H,G230A,H232R,R293Q] (Homo sapiens, UniProt Q86WV6, G230A/H232R/R293Q/R71H)
T1 construct: gene STING1
Test: STING Biochemical [3H]cGAMP Competition Assay
Source text: The binding assay employs STING receptor obtained from Hi-Five cell membranes overexpressing full-length HAQ STING prepared in-house and tritiated cGAMP ligand also purified in-house.

T1 sequence (Q86WV6 whole entry R71H/G230A/H232R/R293Q, looked up): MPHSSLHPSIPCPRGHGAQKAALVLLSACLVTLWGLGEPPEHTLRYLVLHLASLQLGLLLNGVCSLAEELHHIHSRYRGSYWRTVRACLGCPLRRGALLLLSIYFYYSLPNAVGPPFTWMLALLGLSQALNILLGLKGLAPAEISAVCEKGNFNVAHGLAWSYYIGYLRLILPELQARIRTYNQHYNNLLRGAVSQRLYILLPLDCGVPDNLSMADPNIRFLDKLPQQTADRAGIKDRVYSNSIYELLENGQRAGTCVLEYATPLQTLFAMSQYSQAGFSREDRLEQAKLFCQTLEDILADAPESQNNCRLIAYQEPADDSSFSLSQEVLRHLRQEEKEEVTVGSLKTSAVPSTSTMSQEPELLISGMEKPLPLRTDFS

EC50: 5.99 µM
SMILES: COc1cc2cc(C(=O)CCC(=O)OC(C)(C)C)sc2cc1OC [US10730849, Example 12]
